Assay results published in patent publication US20010049441A1, “Azaindoles having serotonin receptor affnity” (Allelix Biopharmaceuticals, Inc., priority 1999, published 2001).

target: T1, 5-HT6 receptor (Homo sapiens, UniProt P50406); experiment: Binding affinity for the 5-HT6 receptor (3H-LSD displacement, membranes of recombinant cells); conditions: 100 nM of test compound; 3H-LSD (2 nM); 60 minute incubation at 37° C.; read-out: percent inhibition of binding of the radioligand for the 5-HT6 receptor
T1 construct: expressed in transfected cells
Procedure: All of the compounds of the invention were evaluated using cell types receptive specifically to the 5-HT6 receptor (for cloning and characterization of the human 5-HT6 receptor see Kohen, et al. J. Neurochemistry, 66, 1996: 47-56). The assay protocol generally entailed the incubation of membranes prepared from cells expressing the 5-HT6 receptor with ^3H-LSD (2 nM). Increasing levels of the test compound were incubated with the radioligand and the membrane homogenates prepared from the recombinant cells. After a 60 minute incubation at 37° C., the incubation was terminated by vacuum filtration. The filters were washed with buffer and the filters were counted for radioactivity using liquid scintillation spectrometry. The affinity of the test compound for the 5-HT6 receptor was determined by computer-assisted analysis of the data and determining the amount of the compound necessary to inhibit 50% of the binding of the radioligand to the receptor. Concentrations ranging from 10^−11 M to 10^−5 M of the test compound were evaluated. […] Affinity for the 5-HT6 receptor is expressed as the amount (in percent) of binding of the radioligand that is inhibited in the presence of 100 nM of test compound. A greater percent inhibition indicates greater affinity for the 5-HT6 receptor.

T1 sequence (P50406 whole entry): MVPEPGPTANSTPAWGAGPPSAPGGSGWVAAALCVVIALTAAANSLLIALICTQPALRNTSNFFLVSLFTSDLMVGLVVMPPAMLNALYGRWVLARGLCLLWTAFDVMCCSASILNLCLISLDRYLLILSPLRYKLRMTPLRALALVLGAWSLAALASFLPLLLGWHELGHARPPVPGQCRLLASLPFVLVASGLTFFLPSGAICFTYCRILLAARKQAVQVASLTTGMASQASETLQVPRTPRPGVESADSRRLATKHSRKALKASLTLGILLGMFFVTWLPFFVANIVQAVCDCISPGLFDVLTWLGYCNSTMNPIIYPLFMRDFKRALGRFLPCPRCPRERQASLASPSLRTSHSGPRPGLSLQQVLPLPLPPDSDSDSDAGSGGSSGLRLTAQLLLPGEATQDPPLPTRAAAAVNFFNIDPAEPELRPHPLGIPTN

**Q.** With `O=S(=O)(c1ccccc1)n1cc(C2=CCN3CCCC3C2)c2cnccc21` (stereo not shown) [3-(1,2,3,5,8,8a-Hexahydro-7-indolizinyl)-1-benzenesulfonyl-5-azaindole] as the molecule, how does the inhibition at 0.1 µM read?
**A.** > 90%

**Q.** For `O=S(=O)(c1ccc2ccccc2c1)n1cc(C2CCN3CCCC3C2)c2cccnc21` (single isomer, unassigned) [3-(Octahydro-7-indolizinyl)-1-(2-naphthalenesulfonyl)-7-azaindole], which inhibition at 0.1 µM is on record?
**A.** > 80%

**Q.** How did the inhibition at 0.1 µM turn out when `O=S(=O)(c1cccc2ccccc12)n1cc(C2CCN3CCCC3C2)c2ccncc21` (single isomer, unassigned) [3-(Octahydro-7-indolizinyl)-1-(1-naphthalenesulfonyl)-6-azaindole] was run?
**A.** > 80%

**Q.** `O=S(=O)(c1cccc2ccccc12)n1cc(C2CCN3CCCC3C2)c2ncccc21` (stereo not shown) [3-(Octahydro-7-indolizinyl)-1-(1-naphthalenesulfonyl)-4-azaindole] was tested. Which inhibition at 0.1 µM did it give?
**A.** > 80%

**Q.** How did the inhibition at 0.1 µM turn out when `O=C(c1c(Cl)cccc1Cl)n1cc(C2=CCN3CCCC3C2)c2cccnc21` (stereo not shown) [1-(2,6-Dichlorobenzoyl)-3-(1,2,3,5,8,8a-hexahydro-7-indolizinyl)-7-azaindole] was run?
**A.** > 80%

**Q.** Which inhibition at 0.1 µM does the source give for `O=S(=O)(c1ccc2ccccc2c1)n1cc(C2CCN3CCCC3C2)c2ncccc21` (stereo not shown) [3-(Octahydro-7-indolizinyl)-1-(2-naphthalenesulfonyl)-4-azaindole] here?
**A.** > 95%

**Q.** `O=S(=O)(c1ccc2ccccc2c1)n1cc(C2=CCN3CCCC3C2)c2cccnc21` (stereo not shown) [3-(1,2,3,5,8,8a-Hexahydro-7-indolizinyl)-1-(2-naphthalenesulfonyl)-7-azaindole] was tested. Which inhibition at 0.1 µM did it give?
**A.** > 90%

**Q.** With `Cc1ccc(S(=O)(=O)n2cc(C3=CCN4CCCC4C3)c3cnccc32)cc1` (stereo not shown) [3-(1,2,3,5,8,8a-Hexahydro-7-indolizinyl)-1-(4-methylbenzenesulfonyl)-5-azaindole] as the molecule, how does the inhibition at 0.1 µM read?
**A.** > 80%

**Q.** For `O=S(=O)(c1cccc2ccccc12)n1cc(C2=CCN3CCCC3C2)c2cnccc21` (stereo not shown) [3-(1,2,3,5,8,8a-Hexahydro-7-indolizinyl)-1-(1-naphthalenesulfonyl)-5-azaindole], which inhibition at 0.1 µM is on record?
**A.** > 95%

target: T1, 5-HT6 receptor; experiment: Functional assay: serotonin-induced adenyl cyclase activity (cAMP) in HEK 293 cells; format: cell-based; conditions: HEK 293 cells stably expressing human 5HT6 receptor; test compound (100 nM and 10 μM) along with serotonin; cAMP by EIA
Procedure: The 5HT6 receptor responds to serotonin and other agonists by increasing adenyl cyclase mediated production of cyclic AMP. Particular test compounds were assayed for their effect on adenyl cyclase activity using the procedure described below.
Compounds acting as antagonists at the 5HT6 receptor will antagonize the agonist effect of serotonin and thus, will block the serotonin-induced increase in adenyl cyclase activity.
HEK 293 cells stably expressing the human 5HT6 receptor were plated in 6 well plates in DMEM (Dulbecco's Modified Eagle Medium)/F12 (Nutrient Mixture F12—Ham) media with 10% FCS (fetal calf serum) and G418 (Geneticen Disulfate, 500 ug/ml), and incubated at 37° C. in a CO2 incubator. The cells were allowed to grow to about 70% confluence before use in the assay.
The culture medium of each well was removed, and the wells were washed once with serum free media. Then 2 ml of SFM+IBMX medium (SFM with 0.5 mM IBMX, 3-isobutyl-1-methylxanthine, 0.1% ascorbic acid and 10 mM pargyline) was added to each well and the wells were incubated at 37° C. for 10 min. Following incubation, the SFM+IBMX medium was removed from each well and fresh SFM+IBMX media was added to the wells separately with one of a) serotonin (1 μM final concentration); b) test compound (100 nM and 10 μM, to test for agonist activity); and c) test compound (100 nM and 10 μM) along with serotonin ([…], to test for antagonist activity). Basal adenyl cyclase activity was determined from wells with only SFM+IBMX media added.
The cells were then incubated at 37° C. for 30 minutes in a CO2 incubator. […] The pellets were discarded and the supernatants were stored at 4° C. until assayed for cAMP concentration. cAMP content for each extract was determined in duplicate by EIA (enzyme-immunoassay) using the Amersham Biotrak cAMP EIA kit (Amersham RPN 225). Final results were expressed as %basal response for agonists and % reversal of serotonin response for antagonists.
The total stimulation of adenyl cyclase by serotonin (So) was determined as the difference in concentration of cAMP in the serotonin-treated cells (Cd) and the basal-treated cells (Cf).
The net stimulation (S) of basal adenyl cyclase by an agonist test compound was determined as the difference in cAMP concentration in the drug-treated cell (C) and the basal-treated cells (Cf).
The net stimulation (Ss) of basal adenyl cyclase by serotonin in the presence of an antagonist test compound was determined as the difference in cAMP concentration in the serontonin-drug-treated cells (Cs) and the basal-treated cells (Cf).
The ability of the antagonist test compound to reverse the serotonin stimuation of adenyl cyclase activity (% reversal, %R) was determined by the formula: […]

**Q.** `O=S(=O)(c1ccccc1)n1cc(C2=CCN3CCCC3C2)c2cnccc21` (stereo not shown) [3-(1,2,3,5,8,8a-Hexahydro-7-indolizinyl)-1-benzenesulfonyl-5-azaindole] was tested. Which “reversal of serotonin stimulation of adenyl cyclase (5-HT6 receptor antagonist behaviour)” value (from here on “reversal”) did it give?
**A.** able to reverse the serotonin stimulation of adenyl cyclase

**Q.** For `O=S(=O)(c1ccccc1)n1cc(C2=CCN3CCCC3C2)c2cccnc21` (stereo not shown) [3-(1,2,3,5,8,8a-Hexahydro-7-indolizinyl)-1-benzenesulfonyl-7-azaindole], which “reversal” value is on record?
**A.** able to reverse the serotonin stimulation of adenyl cyclase

**Q.** Which “reversal” value does the source give for `O=S(=O)(c1cccc2ccccc12)n1cc(C2=CCN3CCCC3C2)c2cccnc21` (stereo not shown) [3-(1,2,3,5,8,8a-Hexahydro-7-indolizinyl)-1-(1-naphthalenesulfonyl)-7-azaindole] here?
**A.** able to reverse the serotonin stimulation of adenyl cyclase

**Q.** `O=S(=O)(c1cccc2ccccc12)n1cc(C2=CCN3CCCC3C2)c2cnccc21` (stereo not shown) [3-(1,2,3,5,8,8a-Hexahydro-7-indolizinyl)-1-(1-naphthalenesulfonyl)-5-azaindole] was tested. Which “reversal” value did it give?
**A.** able to reverse the serotonin stimulation of adenyl cyclase
